Values quoted from earlier work, collected in US20080279952A1, “Controlled-Release Flupirtine Compositions, Compacts, Kits and Methods of Making and Use Thereof” (priority 2007, published 2008).

What was measured:
[1] = in vivo
[2] = in vivo; remark: listed apart in the source

Row | portion of the administered dose metabolized in the liver [1] | Structure (SMILES) | analgesic effect as percentage of that of flupirtine [2]
1 | Approximately 75% | CCOC(=O)Nc1ccc(NCc2ccc(F)cc2)nc1N [flupirtine] | 
2 |  | CC(=O)Nc1ccc(NCc2ccc(F)cc2)nc1N [2-amino-3-acetamino-6-(4-fluor)-benzyl-amino-pyridine] | about 25%
